Test results from patent US5422249A, “Process for the manufacture of thrombin inhibitors” (Ciba-Geigy Corporation, priority 1984, dated 1995).

Key:
[1] = test system: other enzymes of the blood coagulation cascade; assay: action on other enzymes/proteinases of the blood coagulation system; format: biochemical; details: desulphatohirudin
toxicity in rats = format: in vivo; details: dose 1 g/kg
[2] = tolerability (hypersensitivity, allergic reactions, harmlessness); details: in vivo
[3] = test system: thrombin from human plasma; assay: thrombin-inhibition test with Chromozym TH; format: biochemical; details: for Thrombin inhibition (%): Experimental conditions No. 1, Table 1
Experimental: The cells (50 ml of the growing culture) are harvested and resuspended in 5 ml of a solution of 50 mM tris.HCl (pH 8.0) and 30 mM NaCl. Subsequently, the suspension is shaken with 5 g of cooled glass beads (diameter 0.5 mm), or by the addition of lysozyme (Boehringer), final concentration 1 mg/ml, at intervals during 30 to 45 minutes on a Multi-Tube Vortexer at high intensity. 0.5 ml of 2% acetic acid are added to 0.5 ml of the mixture which is then centrifuged at 12,000 revs/min for 20 minutes at 4° C. The supernatant solution is examined for hirudin activity (inhibition of thrombin). The thrombin-inhibition test is carried out as follows:
The test is based on the determination of the enzymatic removal of p-nitroaniline from the substrate Chromozym TH (tosyl-glycyl-prolyl-arginine-4-nitroanilide-acetate). […] The reaction time is 2 hours at 37° C. in the incubation chamber. For the test, 20 μl of the solution to be determined is diluted with 30 μl of filling buffer (0.2M tris.HCl pH 7.5, 1M NaCl, 100 μg/ml bovine serum albumin), and 20 μl of enzyme solution [10 mg of lyophilised thrombin from human plasma (Boehringer) dissolved in 1 ml of bidistilled water and diluted approximately 1:400 with the above filling buffer] and 150 μof substrate solution [[…] chromozym TH (Boehringer) dissolved in 4 ml of bidistilled water and diluted 1:15 with the above filling buffer] are added. All solutions are measured against a blank solution consisting of 70 μl of filling buffer (see above) and 150 μl of substrate solution and against an enzyme control solution consisting of 50 μl of filling buffer, 20 μl of enzyme solution and 150 μl of substrate solution. […] The thrombin inhibition (as a %) of the samples is calculated in accordance with the following formula: [formula]

[4] = test system: other enzymes of the blood coagulation cascade; details: natural hirudin; cited from earlier work
[5] = intravenously to dogs, even in high doses; cited from earlier work
[6] = test system: experimental thrombosis (induced either by stasis or by the injection of thrombin), endotoxin shock, DIC; details: cited from earlier work

Row | Substance | specificity to thrombin / interactions with other proteinases of the blood coagulation system [1] | active toxicity (toxicity in rats) | hypersensitivity reactions or allergic reactions [2] | thrombin inhibition ([3]; HPLC fraction from S. cerevisiae GRF18/pJDB207R/PH05-HIR, conditions as in Example 26a) [%] | Thrombin inhibition (%) ([3]; RP-HPLC fractions) | Thrombin inhibition (%) ([3]; RP-HPLC fractions, listed as Fr 14) | Thrombin-inhibition % ([3]; RP-HPLC fractions, Experimental conditions No. 2, Table 2) [%] | inhibition of other enzymes of the blood coagulation cascade [4] | effect on heart rate, respiration, blood pressure, thrombocyte count, fibrinogen and haemoglobin [5] | direct comparison tests with heparin ([6]; in vivo) | efficacy in experimental thrombosis, endotoxin shock and DIC ([6]; rats, pigs and dogs)
1 | desulphatohirudin | completely specific to thrombin | no toxic effects | no hypersensitivity reactions or allergic reactions | 89.6 | 86 | 79 | 97.3 ± 2 |  |  |  | 
2 | hirudin |  |  |  |  |  |  |  | not inhibited | No effect | superior to heparin | effective
